Laboratory results taken from patent publication US20190010182A1, “SALT OF (SS)-ADENOSYL METHIONINE WITH INOSITOL HEXAPHOSPHATE, AND PROCESS FOR THE PREPARATION THEREOF” (GNOSIS S.p.A., priority 2017, published 2019).

What was measured:
[1] = stability test, storage at +25° C. in a thermostatic stove up to 6 months; format: physicochemical; details: FIG. 4
Procedure: FIG. 3 depicts SAMe ion content analysis in a product stability test, storing samples at 25° C. in a thermostatic stove up to 6 months. The test measured the SAMe ion content (as percent loss of SAMe ion) in the (SS)SAMe inositol hexaphosphate salt (samples AT1003 and AT1005), the commercial SAMe 1,4-butanedisulphonate salt (sample SD4Test1), the commercial SAMe Pates salt (S1S1057B) and the SAMe-metal-phytate complex obtained according to EP1896489 (sample 04B17DS).
FIG. 4 further depicts SAMe ion content analysis in a product stability test for diastereomeric purity, storing samples at 25° C. in a thermostatic stove up to 6 months. The test measured the (SS)SAMe diastereoisomer ion content (as percent loss of (SS)SAMe diastereomer) in the (SS)SAMe inositol hexaphosphate salt (samples AT1003 and AT1005), and also in the commercial SAMe 1,4-butanedisulphonate salt (sample SD4Test1), the commercial SAMe Pates salt (S1S1057B) and the SAMe-metal-phytate complex obtained according to EP1896489 (sample 04B17DS).
Some samples of the products obtained as described in the previous examples are subjected to stability tests, storing them at +25° C., in a thermostatic stove. […]

[2] = Pharmacokinetic profile in the rat (SAMe blood levels, AUC); format: in vivo, Sprague Dawley rats; details: by cannula in water, 134 mg/kg and 95 mg/kg, compared with SAMe Pates at equal SAMe ion dose
Procedure: 70 Sprague Dawley rats (35 male and 35 female), aged 7-9 weeks and weighing 176-200 g, were acclimatized in a cage for two weeks before the start of the treatment, maintained at +22° C. and 55% relative humidity. The rats were fed on 4RF 21 (Mucedola) feed, and weighed before the beginning and at the end of the test. At the time of treatment, 32 animals per group (16 males and 16 females) were selected from those with the most similar weights, and assigned to the two treatments.
The product was administered by cannula, dissolved in water, at two dose levels, namely 134 mg/kg and 95 mg/kg. The rats were fasted overnight before administration and for a further two hours after administration. The two equimolar doses guaranteed an equal intake of SAMe ion.
The blood levels of SAMe were assayed by taking a sample from the tail vein at fixed intervals, at times 0 (pre-administration), 0.5, 1, 1.5, 2, 4, 8 and 24 hours after administration. The blood samples were centrifuged after addition of EDTA to separate the plasma from the cell fraction. The plasma was then analysed by HPLC according to the method reported in Wise, Fullerton J. Liq. Chromatogr. […]
The SAMe plasma concentration values are also used to determine, according to the Area Under Curve (AUC) calculation, the total quantity of active ingredient absorbed, obtaining the values set out in FIG. 2.

[3] = accelerated stability test, thermostatic stove at +55° C., 5 days; format: physicochemical
Procedure: The product obtained as described in Example 6 (comprising SAMe and phytic acid) and a sample of SAMe inositol hexaphosphate obtained as described in Example 5 are subjected to an accelerated stability test, incubated in a thermostatic stove at +55° C., and the analyses are repeated after 5 days.
The samples are analysed for the following values:
SAMe ion content (total of all enantiomers) determined by HPLC and expressed as % by weight enantiomeric purity, determined by HPLC and expressed as % of (SS) isomer active ingredient content, calculated by multiplying the previous two values and expressed as % by weight of (SS)SAMe overall purity, determined by HPLC as SAMe area/total area of chromatogram, expressed as area %. The figure comprises the values of all known degradation impurities.

C[S@@+](CC[C@H](N)C(=O)[O-])C[C@H]1O[C@@H](n2cnc3c(N)ncnc32)[C@H](O)[C@@H]1O.O=P(O)(O)O[C@H]1[C@H](OP(=O)(O)O)[C@@H](OP(=O)(O)O)[C@H](OP(=O)(O)O)[C@@H](OP(=O)(O)O)[C@H]1OP(=O)(O)O [AT1003, (SS)-adenosyl methionine with myo-inositol 1,2,3,4,5,6 hexakisphosphate]
(SS)SAMe isomer content stability (percent loss of (SS)SAMe diastereomer) [1]: stable for longer
plasma concentration of active ingredient (SAMe) ([2]; FIG. 1): higher plasma concentration
absorption (AUC 8 hours of SAMe plasma concentration) ([2]; FIG. 2): better absorption
content of the active ingredient (SS)SAMe after the stress test ([3]; 5 days at +55° C., compared with 04B17DS): maintains a higher content
degradation by isomerization after the stress test ([3]; 5 days at +55° C., comparison of AT1003 and 04B17DS): surprisingly lower
(SS) enantiomer (enantiomeric purity, HPLC), final value ([3]; after 5 days at +55° C.): 69.56%
SAMe content (SAMe ion, total of all enantiomers, HPLC), final value ([3]; after 5 days at +55° C.): 30.6% w/w
Purity (% area), final value ([3]; after 5 days at +55° C., HPLC SAMe area/total area): 90.0% area
(SS)SAMe content (active ingredient content), final value ([3]; after 5 days at +55° C., SAMe content x enantiomeric purity, % by weight): 21.28%
(SS) enantiomer (enantiomeric purity, HPLC), starting value ([3]; before incubation at +55° C.): 77.2%
SAMe content (SAMe ion, total of all enantiomers, HPLC), starting value ([3]; before incubation at +55° C.): 34.45% w/w
Purity (% area), starting value ([3]; before incubation at +55° C., HPLC SAMe area/total area): 95.98% area
(SS)SAMe content (active ingredient content), starting value ([3]; before incubation at +55° C., SAMe content x enantiomeric purity, % by weight): 26.59%
